Molecules are shown by their SMILES.

The target in one assay is PI3Kdelta (Homo sapiens (Human), UniProt O00329). In words: HTRF PI3K biochemical assay, delta isoform. Particulars: 0.3 nM enzyme, 100 uM ATP, 50 uM PIP2; form screened (neutral or TFA salt). (TR-FRET usually uses a lanthanide donor and a delayed reading to cut background.)
The target in another assay is PI3Kalpha (Homo sapiens (Human), UniProt P42336). In words: HTRF PI3K biochemical assay, alpha isoform (selectivity versus delta). To be noted: ratio PI3K-alpha IC50 value/PI3K-delta IC50 value.
Sequence of PI3Kalpha (P42336 whole entry, canonical isoform): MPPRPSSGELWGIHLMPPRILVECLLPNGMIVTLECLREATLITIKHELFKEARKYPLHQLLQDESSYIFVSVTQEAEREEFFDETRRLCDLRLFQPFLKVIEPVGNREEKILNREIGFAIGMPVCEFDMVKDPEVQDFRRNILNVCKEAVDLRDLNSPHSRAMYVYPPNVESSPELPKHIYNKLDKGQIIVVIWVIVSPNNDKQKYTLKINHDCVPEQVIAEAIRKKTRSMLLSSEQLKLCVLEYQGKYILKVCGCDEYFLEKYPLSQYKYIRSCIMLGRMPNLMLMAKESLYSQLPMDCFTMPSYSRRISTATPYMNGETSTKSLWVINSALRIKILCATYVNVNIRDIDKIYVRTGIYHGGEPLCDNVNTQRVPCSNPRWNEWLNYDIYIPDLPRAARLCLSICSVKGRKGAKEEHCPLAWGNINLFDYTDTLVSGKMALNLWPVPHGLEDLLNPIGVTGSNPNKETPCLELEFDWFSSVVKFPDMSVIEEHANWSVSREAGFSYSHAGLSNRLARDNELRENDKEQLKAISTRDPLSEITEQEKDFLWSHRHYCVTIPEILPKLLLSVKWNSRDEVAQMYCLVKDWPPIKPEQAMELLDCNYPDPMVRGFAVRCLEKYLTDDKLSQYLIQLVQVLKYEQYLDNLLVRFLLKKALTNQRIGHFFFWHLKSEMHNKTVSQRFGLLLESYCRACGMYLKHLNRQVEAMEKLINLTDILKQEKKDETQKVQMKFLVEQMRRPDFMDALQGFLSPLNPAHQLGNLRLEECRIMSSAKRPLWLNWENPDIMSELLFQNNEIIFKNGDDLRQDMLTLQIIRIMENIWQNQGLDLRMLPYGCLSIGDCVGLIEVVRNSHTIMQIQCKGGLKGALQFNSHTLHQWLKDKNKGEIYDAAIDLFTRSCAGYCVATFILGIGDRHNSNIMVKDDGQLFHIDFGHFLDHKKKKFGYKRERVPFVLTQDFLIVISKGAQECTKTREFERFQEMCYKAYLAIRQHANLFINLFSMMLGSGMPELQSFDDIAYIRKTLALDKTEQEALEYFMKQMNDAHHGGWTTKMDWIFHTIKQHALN
Sequence of PI3Kalpha (P27986 whole entry partner, canonical isoform): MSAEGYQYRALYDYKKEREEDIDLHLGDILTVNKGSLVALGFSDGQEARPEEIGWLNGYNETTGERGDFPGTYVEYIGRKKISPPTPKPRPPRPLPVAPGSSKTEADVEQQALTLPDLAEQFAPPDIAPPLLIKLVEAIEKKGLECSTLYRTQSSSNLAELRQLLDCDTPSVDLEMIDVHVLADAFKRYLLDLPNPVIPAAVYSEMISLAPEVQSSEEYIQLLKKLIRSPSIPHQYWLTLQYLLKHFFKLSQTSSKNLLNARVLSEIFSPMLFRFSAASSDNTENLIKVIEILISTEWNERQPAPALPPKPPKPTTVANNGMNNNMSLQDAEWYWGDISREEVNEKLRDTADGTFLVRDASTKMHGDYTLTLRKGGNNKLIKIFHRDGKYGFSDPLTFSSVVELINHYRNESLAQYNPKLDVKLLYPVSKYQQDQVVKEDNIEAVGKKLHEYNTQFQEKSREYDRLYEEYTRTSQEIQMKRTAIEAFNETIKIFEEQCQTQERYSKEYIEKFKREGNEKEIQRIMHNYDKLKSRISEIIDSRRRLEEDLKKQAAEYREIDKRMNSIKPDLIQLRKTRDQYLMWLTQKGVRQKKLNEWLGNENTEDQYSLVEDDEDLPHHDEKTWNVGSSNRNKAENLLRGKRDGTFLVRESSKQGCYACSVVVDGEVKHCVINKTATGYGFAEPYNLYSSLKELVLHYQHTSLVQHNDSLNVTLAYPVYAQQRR

Sequence of PI3Kdelta (O00329 whole entry, canonical isoform): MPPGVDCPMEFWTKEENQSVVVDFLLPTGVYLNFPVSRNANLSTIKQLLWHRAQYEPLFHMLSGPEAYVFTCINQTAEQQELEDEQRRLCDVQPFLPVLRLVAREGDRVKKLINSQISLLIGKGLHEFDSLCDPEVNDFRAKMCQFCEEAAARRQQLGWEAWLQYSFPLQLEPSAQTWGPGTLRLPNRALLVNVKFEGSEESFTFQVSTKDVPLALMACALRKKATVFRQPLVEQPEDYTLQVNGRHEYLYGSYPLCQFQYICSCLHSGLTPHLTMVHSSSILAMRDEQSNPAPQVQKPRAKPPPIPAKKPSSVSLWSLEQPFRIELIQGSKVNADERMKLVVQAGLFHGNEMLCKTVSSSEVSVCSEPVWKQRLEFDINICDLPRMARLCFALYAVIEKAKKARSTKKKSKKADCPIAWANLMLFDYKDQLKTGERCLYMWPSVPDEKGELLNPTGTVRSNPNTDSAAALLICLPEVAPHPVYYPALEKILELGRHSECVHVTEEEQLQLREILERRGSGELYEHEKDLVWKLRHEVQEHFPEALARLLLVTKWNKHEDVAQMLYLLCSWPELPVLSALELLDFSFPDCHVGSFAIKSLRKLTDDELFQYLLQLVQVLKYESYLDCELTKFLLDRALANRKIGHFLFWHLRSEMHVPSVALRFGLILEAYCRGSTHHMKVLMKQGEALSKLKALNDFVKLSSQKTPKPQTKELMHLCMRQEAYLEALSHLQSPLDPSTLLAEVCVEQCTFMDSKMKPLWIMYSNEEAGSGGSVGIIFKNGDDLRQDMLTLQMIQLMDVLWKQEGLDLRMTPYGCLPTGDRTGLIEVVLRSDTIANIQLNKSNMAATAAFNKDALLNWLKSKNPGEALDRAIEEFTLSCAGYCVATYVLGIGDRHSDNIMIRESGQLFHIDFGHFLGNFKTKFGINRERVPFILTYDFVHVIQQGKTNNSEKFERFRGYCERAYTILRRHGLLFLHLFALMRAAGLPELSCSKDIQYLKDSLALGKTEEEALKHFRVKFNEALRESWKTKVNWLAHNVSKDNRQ
Sequence of PI3Kdelta (P27986 whole entry partner, canonical isoform): as the sequence (P27986 whole entry partner, canonical isoform) above

As for `CCn1c(-c2cnc(C)nc2)nc2c(-c3ccc4c(c3)C3(CCCN3C(=O)C3CC3)C(=O)N4C(C)C)ncnc21` (single isomer, unassigned) [Compound 3-10, (R or S)-1′-(cyclopropanecarbonyl)-5-(9-ethyl-8-(2-methylpyrimidin-5-yl)-9H-purin-6-yl)-1-isopropylspiro[indoline-3,2′-pyrrolidin]-2-one], the IC50 (usually the concentration that inhibits the measured activity by half) at PI3Kdelta is 3 nM. Moreover, the “Relative Selectivity versus PI3Kalpha” value on PI3Kalpha was over 10.

Take `Cc1ncc(-c2nc3c(-c4cnc5c(c4)C(C)(CC(C)C)C(=O)N5)ncnc3n2C)cn1` (single isomer, unassigned) [Compound 1-27, (R or S)-3-isobutyl-3-methyl-5-(9-methyl-8-(2-methylpyrimidin-5-yl)-9H-purin-6-yl)-1,3-dihydro-2H-pyrrolo[2,3-b]pyridin-2-one]: at PI3Kdelta, the IC50 was 5 nM. In addition, the “Relative Selectivity versus PI3Kalpha” value on PI3Kalpha is reported as over 10.

For `CCn1c(-c2cnc(C)nc2)nc2c(-c3ccc4c(c3)C(C)(CC(C)C)OC(=O)N4)ncnc21` (single isomer, unassigned) [Compound 4-4, (R or S)-6-[9-ethyl-8-(2-methylpyrimidin-5-yl)-9H-purin-6-yl]-4-methyl-4-(2-methylpropyl)-1,4-dihydro-2H-3,1-benzoxazin-2-one], the IC50 on PI3Kdelta worked out at 4 nM. The “Relative Selectivity versus PI3Kalpha” value at PI3Kalpha is over 10.

As for `CCn1c(-c2cnc(C)nc2)nc2c(-c3ccc4c(c3)C(C)(CC)C(=O)N4)ncnc21` (single isomer, unassigned) [Compound 1-38, (R or S)-3-ethyl-5-(9-ethyl-8-(2-methylpyrimidin-5-yl)-9H-purin-6-yl)-3-methylindolin-2-one], the IC50 at PI3Kdelta came to 80 nM. Further, on PI3Kalpha, the “Relative Selectivity versus PI3Kalpha” value was over 10.

In the case of `CCn1ncc(-c2nc3c(-c4ccc5c(c4)C(C)(CC4CC4)C(=O)N5)ncnc3n2CC)c1C` (single isomer, unassigned) [Compound 1-25, 3-(Cyclopropylmethyl)-5-(9-ethyl-8-(1-ethyl-5-methyl-1H-pyrazol-4-yl)-9H-purin-6-yl)-3-methylindolin-2-one], the IC50 on PI3Kdelta was found to be 4 nM. Moreover, the “Relative Selectivity versus PI3Kalpha” value at PI3Kalpha is recorded as over 10.

`CCn1c(-c2cnc(C)nc2)nc2c(-c3ccc4c(c3)C(C)(Nc3ccncc3)C(=O)N4)ncnc21` (racemic) [Compound 2-9, (R and S)-5-[9-ethyl-8-(2-methylpyrimidin-5-yl)-9H-purin-6-yl]-3-methyl-3-(pyridin-4-ylamino)-1,3-dihydro-2H-indol-2-one]: on PI3Kdelta, the IC50 was 144 nM. For the same compound, the “Relative Selectivity versus PI3Kalpha” value at PI3Kalpha is recorded as over 10.

`Cc1ncc(-c2nc3c(-c4ccc5c(c4)C4(CCCN4C(=O)C4CC4)C(=O)N5CCN4CCOCC4)ncnc3n2C)cn1` (single isomer, unassigned) [Compound 3-16, (R or S)-1′-(cyclopropanecarbonyl)-5-(9-methyl-8-(2-methylpyrimidin-5-yl)-9H-purin-6-yl)-1-(2-morpholinoethyl)spiro[indoline-3,2′-pyrrolidin]-2-one]: the IC50 at PI3Kdelta was 2 nM. Also, the “Relative Selectivity versus PI3Kalpha” value at PI3Kalpha is over 10.

Consider `CCn1c(-c2cnc(C)nc2)nc2c(-c3ccc4c(c3)C(C)(CC(C)C)NC4=O)ncnc21` (single isomer, unassigned) [Compound 4-8, (R or S)-5-[9-ethyl-8-(2-methylpyrimidin-5-yl)-9H-purin-6-yl]-3-methyl-3-(2-methylpropyl)-2,3-dihydro-1H-isoindol-1-one], for which the IC50 at PI3Kdelta was found to be 128 nM. Besides, at PI3Kalpha, the “Relative Selectivity versus PI3Kalpha” value is reported as over 10.

Regarding `CCn1c(-c2cnc(C)nc2)nc2c(-c3ccc4c(c3)C(C)(CC3(C)COC3)C(=O)N4)ncnc21` (single isomer, unassigned) [Compound 1-5, (R or S)-5-[9-ethyl-8-(2-methylpyrimidin-5-yl)-9H-purin-6-yl]-3-methyl-3-[(3-methyloxetan-3-yl)methyl]-1,3-dihydro-2H-indol-2-one], on PI3Kdelta, the IC50 turned out to be 177 nM. Also, the “Relative Selectivity versus PI3Kalpha” value at PI3Kalpha was determined as 3.

As for `CCn1c(-c2cnc(C)nc2)nc2c(-c3ccc4[nH]c(=O)n(C(C)C5CC5)c4c3)ncnc21` (single isomer, unassigned) [Compound 5-7, (R or S)-1-(1-cyclopropylethyl)-6-[9-ethyl-8-(2-methylpyrimidin-5-yl)-9H-purin-6-yl]-1,3-dihydro-2H-benzimidazol-2-one], the IC50 on PI3Kdelta came to 3 nM. Also, on PI3Kalpha, the “Relative Selectivity versus PI3Kalpha” value was over 10.

Turning to `CCn1c(-c2cnc(C)nc2)nc2c(-c3ccc4c(c3)C(C)(N3CC(C)(F)C3)C(=O)N4)ncnc21` (single isomer, unassigned) [Compound 2-63, (R or S)-5-(9-ethyl-8-(2-methylpyrimidin-5-yl)-9H-purin-6-yl)-3-(3-fluoro-3-methylazetidin-1-yl)-3-methylindolin-2-one], on PI3Kdelta, the IC50 was found to be 87 nM. The “Relative Selectivity versus PI3Kalpha” value on PI3Kalpha was over 10.

As for `CCN1C(=O)C2(CCCN2C(=O)C2CC2)c2cc(-c3ncnc4c3nc(-c3cnc(C)nc3)n4CC)ccc21` (single isomer, unassigned) [Compound 3-9, (R or S)-1′-(cyclopropanecarbonyl)-1-ethyl-5-(9-ethyl-8-(2-methylpyrimidin-5-yl)-9H-purin-6-yl)spiro[indoline-3,2′-pyrrolidin]-2-one], the IC50 at PI3Kdelta is 5 nM. The “Relative Selectivity versus PI3Kalpha” value on PI3Kalpha was over 10.

Take `CCn1c(-c2cnc(C)nc2)nc2c(-c3ccc4c(c3)C(C)(NCC(C)(C)C#N)C(=O)N4)ncnc21` (single isomer, unassigned) [Compound 2-39, (R or S)-3-((5-(9-ethyl-8-(2-methylpyrimidin-5-yl)-9H-purin-6-yl)-3-methyl-2-oxoindolin-3-yl)amino)-2,2-dimethylpropanenitrile]: the IC50 on PI3Kdelta was 3 nM. Further, the “Relative Selectivity versus PI3Kalpha” value on PI3Kalpha is over 10.

As for `CCn1c(-c2cnc(C)nc2)nc2c(-c3ccc4c(c3)C(C)(N3CCn5nccc5C3)C(=O)N4)ncnc21` (racemic) [Compound 2-24, (R and S)-3-(6,7-dihydropyrazolo[1,5-a]pyrazin-5(4H)-yl)-5-[9-ethyl-8-(2-methylpyrimidin-5-yl)-9H-purin-6-yl]-3-methyl-1,3-dihydro-2H-indol-2-one], on PI3Kdelta, the IC50 was 67 nM. The “Relative Selectivity versus PI3Kalpha” value on PI3Kalpha was over 10.

The values above are taken from patent US10544147B2, “Purine inhibitors of human phosphatidylinositol 3-kinase delta” (MERCK SHARP & DOHME CORP., priority 2016, dated 2020).
